# Like-named read-outs stand apart in the source and are kept apart here.
# Key:
# [1] = system: rat embryonic DRG neurons; experiment: Primary rat sensory neuron/Schwann cell culture exposed to Cis (myelination); assay type: cell-based; conditions: Cis 10 μg/ml; Carba1 tested at 1, 5, 10 μM
# Protocol: These experiments, conducted by Neuro-Sys company (www.neuro-sys.com/) involved primary SNs and SCs cultured as previously described ([67]). On DIV 19, cultures were pretreated with Carba1 (1 to 10 μM) for 1 hour before exposure to Cis (10 μg/ml) for 24 hours in presence of Carba1. On DIV 20, the medium containing Cis was replaced with fresh medium and Carba1 for another 24 hours, ending the culture on DIV 21. Cells were fixed with ethanol/acetic acid (95%/5%) for 5 min, permeabilized, and blocked with PBS containing 0.1% saponin and 10% FBS. Cells were incubated with monoclonal anti-MBP (1:1000) and polyclonal anti-neurofilament (1:500) antibodies for 2 hours, followed by CF 488 A goat anti-mouse (1:400, Sigma-Aldrich) and Alexa Fluor 568 goat anti-rabbit (1:400, Molecular Probe) for 1 hour at R.T. Hoechst was used to stain nuclei.
# Thirty images per well were acquired at ×20 magnification using ImageXpress (Molecular Devices) with identical acquisition settings, and analysis was automated with MetaXpress software. Key parameters measured included total neurite length (NF; in micrometers), total neurons (NF^+ cells), and myelination (MBP-NF overlap, in square micrometers).
# [2] = system: HeLa cells; experiment: HeLa cell viability (PrestoBlue) assay, 72 h; assay type: cell-based, human
# Protocol: The human HeLa cell line was tested negative for mycoplasma contamination. HeLa cells were grown in RPMI 1640 medium supplemented with penicillin/streptomycin (100 μg/ml) and 10% FBS and maintained in a humidified incubator at 37°C and 5% CO2.
# Cell viability was analyzed using the colorimetric PrestoBlue assay. Cells were seeded in 96-well microplates at a density of 7500 cells per well, allowed to adhere for 24 hours, and treated for 72 hours with either DMSO or drugs at indicated concentrations. PrestoBlue (10 μl) was then added to each well, followed by a 30-min incubation. Fluorescence was measured using a FLUOstar Optima microplate reader (excitation, 544 nm; emission, 580 nm; BMG Labtech).
# [3] = system: DRG explants; experiment: Mouse embryonic 3D DRG explants: axonal degeneration and myelination (MBP/TUBB3); assay type: cell-based; conditions: 72 h
# Protocol: Embryonic DRG 3D explants were prepared from E13.5 mouse embryos and seeded at one explant/1.9 cm^2 on acid-treated, Matrigel-coated glass coverslips ([64], [65]). Explants were cultured at 37°C under 5% CO2 and high saturated in humidity. From DIV 0 to DIV 3, cultures were maintained in C-medium supplemented with 10% FBS, 1× GlutaMAX, D-glucose (4 g/liter), 2.5S nerve growth factor (NGF; 50 ng/ml), and 1% penicillin/streptomycin. From DIV 3 to DIV 7, neurobasal medium supplemented with 1× B27, 1× GlutaMAX, D-glucose (4 g/liter), 2.5S NGF (50 ng/ml), and 1% penicillin/streptomycin was used to promote axon development. From DIV 7 onward, differentiation medium [C-medium supplemented with 5 μM forskolin, ascorbic acid (50 μg/ml), and heparin (25 μg/ml)] was used to support glial cell maturation and myelination, with medium changes occurring every 2 days.
# DRGs were fixed with 10% formalin for 20 min at R.T., washed with PBS, and permeabilized for 10 min with PBS–0.1% Triton X-100. Blocking was performed using a solution of 3% bovine serum albumin (BSA), 0.1% glycine, and 5% goat preimmune serum in PBS for 2 hours at R.T. DRGs were then washed in PBS and incubated overnight at 4°C with of anti-TUBB3 (1 μg/ml) and anti-MBP (1 μg/ml). After PBS washes, secondary antibodies (goat anti-mouse Alexa Fluor 488, 1:1000, and goat anti-rabbit Alexa Fluor 647, 1:1000) were applied for 1 hour at R.T. Explants were mounted with ProLong Gold antifade reagent with 4′,6-diamidino-2-phenylindole (DAPI).
# Images of random fields of DRG explants, fixed in 4% formaldehyde and immunostained for TUBB3 and MBP, were captured with consistent acquisition times across samples, using a Zeiss AxioImager M2 microscope, equipped with a Hamamatsu Orca R2 camera. Image analysis was performed using Fiji software. The images were thresholded using the default global autothreshold method. For each field, MBP^+ segments were counted and normalized to the TUBB3^+ area.
# [4] = biological target: NAMPT (Homo sapiens, UniProt P43490); experiment: NAMPT activity assay (coupled recombinant enzyme kit); assay type: biochemical; parameters: purchased Abcam ab221819; conditions: OD450 at 60 min, normalized by subtraction of DMSO value
# Source text: We next tested whether Carba1 could activate NAMPT in vitro. To that aim, we used a commercial recombinant human enzyme assay containing four enzymes: NAMPT, NAM nucleotide adenylyltransferase 1 (NMNAT1), alcohol dehydrogenase (ADH), and diaphorase (see Materials and Methods). In the presence of NAM and 5-phosphoribosyl-1-pyrophosphate (PRPP), NAMPT converts NAM to NMN, which is then converted into NAD^+ by NMNAT1, while ADH converts NAD^+ to NADH. Then, into a coupled-reaction, diaphorase converts NADH into NAD^+ and tetrazolium salt WST-1 {4-[3-(4-iodophenyl)-2-(4-nitro-phenyl)-2H-5-tetrazolio]-1,3-benzene sulfonate} to formazan, which can be detected at optical density at 450 nm (OD450). In practice, we proceeded in two steps. First, Carba1 and the different tested compounds were incubated for 15 min with NAMPT, NMNAT1, NAM, and PRPP to allow NAD^+ production. The reaction was then stopped with FK866 before adding ADH and diaphorase to convert the NAD^+ produced to NADH, and absorbance was monitored at regular intervals.
# NAMPT activity was measured using the commercial kit, NAMPT Activity Assay, according to the manufacturer’s instructions. […] A mixture of water-soluble tetrazolium salts (WST-1), ADH, diaphorase, and ethanol was added and the absorbance (OD450) measured for 90 min using the microplate reader ClarioSTAR (BMG Labtech).
# [5] = system: adult mouse DRG neurons; experiment: Axonal degeneration index in dissociated adult mouse DRG neurons; conditions: 72 h
# Protocol: After 4 days in vitro (DIV), at least 30% of medium was changed, and 10 μM AraC (cytosine β-D-arabino furanoside) was added to suppress nonneuronal growth. […] Neurons were fixed with 4% paraformaldehyde (PFA), washed with PBS, permeabilized with PBS–0.01% Triton X-100 for 15 min, and blocked with PBS–10% FBS for 1 hour before being stained overnight at 4°C with neurofilament antibody. Following PBS washes, secondary antibody (goat anti-chicken Alexa Fluor 488) was applied for 2 hours at room temperature (R.T.). Following additional PBS washes, coverslips were mounted with Fluoromount-G.
# Images of random fields of dissociated adult DRG neurons, immunostained with antineurofilament or anti-TUBB3 antibodies, were captured using a 20× objective lens (Olympus IX81) and a Sensicam QE monochrome camera (Cooke Corporation). Degeneration masks were generated on the basis of the method described by Gerdts et al. ([66]). Axonal degeneration was quantified by measuring the total axonal area and fragmented axonal area in the same field, using degeneration masks as shown in fig. […] Images were processed in Fiji using global autothresholding, binarization, and the particle analyzer module to detect fragments (20 to 10,000 pixels), as previously described ([17]). The degeneration index was calculated as the ratio of fragmented axonal area to total axonal area.
# [6] = system: HeLa cells; parameters: method as in PMID 32781579; conditions: dividing cells, 72-hour treatment; read-out: GI50 (50% of growth inhibition); cited from earlier work
# Chain of NAMPT (P43490 whole entry): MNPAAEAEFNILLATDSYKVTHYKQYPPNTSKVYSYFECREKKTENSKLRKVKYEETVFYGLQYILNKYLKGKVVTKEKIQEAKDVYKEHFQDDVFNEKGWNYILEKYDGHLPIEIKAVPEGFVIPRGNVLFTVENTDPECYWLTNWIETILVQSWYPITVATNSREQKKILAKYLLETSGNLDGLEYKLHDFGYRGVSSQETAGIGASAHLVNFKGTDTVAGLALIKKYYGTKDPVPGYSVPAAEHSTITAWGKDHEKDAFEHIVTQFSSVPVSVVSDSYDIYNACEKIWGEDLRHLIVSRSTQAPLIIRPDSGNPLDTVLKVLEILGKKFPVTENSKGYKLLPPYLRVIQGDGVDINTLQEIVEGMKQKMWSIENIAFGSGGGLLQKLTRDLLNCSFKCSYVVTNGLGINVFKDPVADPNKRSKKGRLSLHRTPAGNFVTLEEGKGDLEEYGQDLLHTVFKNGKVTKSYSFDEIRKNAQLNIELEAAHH
smiles,measurement,setting,value
Cc1cc(-n2cccc2)c(C)c2c1[nH]c1ccc(Cl)cc12 [Compound 1],concentration of maximal protective effect against Cis-induced demyelination,[1],5 µM
same,relief of FK866 cytotoxicity,"[2]; HeLa cells, coadministration with FK866",counteracted the toxic effect of FK866 in a dose-dependent manner
same,GI50,"[2]; Homo sapiens, HeLa, cell viability, compound alone, read-out: GI50",> 25 µM
same,GI50 FK866 with carbazole/GI50 FK866,"[2]; ratio at the highest noncytotoxic dose of carbazole analog, readout of NAMPT activation",2.6
same,GI50 PTX/GI50 PTX with carbazole,"[2]; ratio at the highest noncytotoxic dose of carbazole analog, synergy with PTX",2.5
same,fragmented axons in DRG explants under PTX,[3]; 12 μM Carba1 with 500 nM PTX,reduced number of fragmented axons
same,"myelin staining, Carba1 combined with PTX vs PTX alone",[3]; 12 μM Carba1 with 500 nM PTX,substantially improved
same,"MBP staining (axonal myelination), agent alone",[3]; Carba1 12 μM or PTX 500 nM,had no effect
same,activation of NAMPT in vitro,[4],enhanced NAMPT activity in a dose-dependent manner
same,protection against PTX-induced axonal degeneration,[5]; 12 μM Carba1 cotreatment with 50 nM PTX,prevented neuronal degeneration
same,protection against Bort-induced neuronal fragmentation,[5]; 12 μM Carba1 cotreatment with 100 nM Bort,prevent neuronal fragmentation
same,protection against Cis-induced neuronal fragmentation,[5]; 12 μM Carba1 cotreatment with 10 μM Cis,prevent neuronal fragmentation
same,"axonal fragmentation / degeneration, agent alone","[5]; DIV 12 neurons, Carba1 12 μM, PTX 50 nM, Cis 10 μM, Bort 100 nM",did not show significant effects on neurite fragmentation
same,GI50,[6],> 25 µM

# From article PMC12571071, “Preventing neuropathy and improving anticancer chemotherapy with a carbazole-based compound” (Science Advances, 2025)
